From patent publication US10167262B2, “Herbicidal substituted 3-arylpyrazoles” (FMC CORPORATION, priority 2014, dated 2019)
Like-named read-outs stand apart in the source and are kept apart here.

How the values were obtained:
Assay in all cases: Test C pre-/postemergence greenhouse test, plant response rating 0-100
Type in all cases: in vivo
[1] = test system: ragweed (common ragweed, Ambrosia elatior); details: Ambrosia artemisiifolia; for pest or weed control at 62 g/ha: 62 g ai/ha; for pest or weed control at 125 g/ha: 125 g ai/ha; for pest or weed control at 250 g/ha: 250 g ai/ha; for pest or weed control at 500 g/ha: 500 g ai/ha
Text: (§1) Seeds of plant species selected from blackgrass (Alopecurus myosuroides), Italian ryegrass (Lolium multiflorum), winter wheat (Triticum aestivum), galium (catchweed bedstraw, Galium aparine), corn (Zea mays), large (Lg) crabgrass (Digitaria sanguinalis), giant foxtail (Setaria faberii), johnsongrass (Sorghum halepense), lambsquarters (Chenopodium album), morningglory (Ipomoea coccinea), yellow nutsedge (Cyperus esculentus), pigweed (Amaranthus retroflexus), ragweed (common ragweed, Ambrosia elatior), soybean (Glycine max), barnyardgrass (Echinochloa crus-galli), oilseed rape (Brassica napus), waterhemp (common waterhemp, Amaranthus rudis), and velvetleaf (Abutilon theophrasti) were planted into a blend of loam soil and sand and treated preemergence with test chemicals formulated in a non-phytotoxic solvent mixture which included a surfactant.
(§2) At the same time, plants selected from these crop and weed species and also winter barley (Hordeum vulgare), bermudagrass (Cynodon dactylon), downy bromegrass (Bromus tectorum), canarygrass (Phalaris minor), cocklebur (common cocklebur, Xanthium strumarium), woolly cupgrass (Eriochloa villosa), deadnettle (henbit deadnettle, Lamium amplexicaule), green foxtail (Setaria viridis), goosegrass (Eleusine indica), surinam grass (Brachiaria decumbens), windgrass (Apera spica-venti), chickweed (common chickweed, Stellaria media), kochia (Kochia scoparia), and wild oat (Avena fatua), were planted in pots containing Redi-Earth® planting medium (Scotts Company, 14111 Scottslawn Road, Marysville, Ohio 43041) comprising spaghnum peat moss, vermiculite, wetting agent and starter nutrients and treated with postemergence applications of test chemicals formulated in the same manner. Plants ranged in height from 2 to 18 cm (1- to 4-leaf stage) for postemergence treatments. Treated plants and controls were maintained in a greenhouse for 13 to 15 days, after which time all species were compared to controls and visually evaluated. Plant response ratings, summarized in Table C, are based on a scale of 0 to 100 where 0 is no effect and 100 is complete control. A dash (-) response means no test result.

[2] = test system: large (Lg) crabgrass (Digitaria sanguinalis); details: Digitaria sanguinalis; for pest or weed control at 62 g/ha: 62 g ai/ha; for pest or weed control at 125 g/ha: 125 g ai/ha; for pest or weed control at 250 g/ha: 250 g ai/ha; for pest or weed control at 500 g/ha: 500 g ai/ha
Text: as §1, §2

[3] = test system: yellow nutsedge (Cyperus esculentus); details: Cyperus; for pest or weed control at 62 g/ha: 62 g ai/ha; for pest or weed control at 125 g/ha: 125 g ai/ha; for pest or weed control at 250 g/ha: 250 g ai/ha; for pest or weed control at 500 g/ha: 500 g ai/ha
Text: as §1, §2

[4] = test system: pigweed (Amaranthus retroflexus); details: Amaranthus retroflexus; for pest or weed control at 62 g/ha: 62 g ai/ha; for pest or weed control at 125 g/ha: 125 g ai/ha; for pest or weed control at 250 g/ha: 250 g ai/ha; for pest or weed control at 500 g/ha: 500 g ai/ha
Text: as §1, §2

[5] = test system: johnsongrass (Sorghum halepense); details: Sorghum halepense; for pest or weed control at 62 g/ha: 62 g ai/ha; for pest or weed control at 125 g/ha: 125 g ai/ha; for pest or weed control at 250 g/ha: 250 g ai/ha; for pest or weed control at 500 g/ha: 500 g ai/ha
Text: as §1, §2

[6] = test system: winter wheat (Triticum aestivum); details: Triticum aestivum; for plant injury at 62 g/ha: 62 g ai/ha; for plant injury at 125 g/ha: 125 g ai/ha; for plant injury at 250 g/ha: 250 g ai/ha; for plant injury at 500 g/ha: 500 g ai/ha
Text: as §1, §2

[7] = test system: corn (Zea mays); details: Zea mays, post-emergence, Postemergence
Text: as §1, §2

[8] = post-emergence, Postemergence, read-out: Plant response rating (0 to 100), Ragweed
[9] = post-emergence, Postemergence, scale 0 to 100
[10] = pre-emergence, Preemergence, read-out: Plant response rating, Ragweed
[11] = post-emergence, Postemergence, read-out: Plant response rating (0 to 100), Crabgrass, Large
[12] = pre-emergence, Preemergence, read-out: Plant response rating, Crabgrass, Large
[13] = post-emergence, Postemergence, read-out: Plant response rating (0 to 100), Nutsedge, Yellow
[14] = pre-emergence, Preemergence, read-out: Plant response rating, Nutsedge, Yellow
[15] = post-emergence, Postemergence, read-out: Plant response rating (0 to 100), Pigweed
[16] = pre-emergence, Preemergence, read-out: Plant response rating, Pigweed
[17] = post-emergence, Postemergence, read-out: Plant response rating (0 to 100), Johnsongrass
[18] = pre-emergence, Preemergence, read-out: Plant response rating, Johnsongrass
[19] = post-emergence, Postemergence, read-out: Plant response rating (0 to 100), Wheat
[20] = pre-emergence, Preemergence, read-out: Plant response rating, Wheat

`CCOC(OCC)(c1ccccc1)c1c[nH]nc1-c1cc(Cl)cc(Cl)c1` [Compound 14, 3-(3,5-dichlorophenyl)-4-(diethoxyphenylmethyl)-1H-pyrazole] showed a pest or weed control at 62 g/ha [1, 8] of 60%, a pest or weed control at 125 g/ha [1, 8] of 70% and a pest or weed control at 250 g/ha [1, 9] of 75%. It also gave a pest or weed control at 500 g/ha [1, 9] of 80%, a pest or weed control at 62 g/ha [1, 10] of 75% and a pest or weed control at 125 g/ha [1, 10] of 100%. For the same compound, the pest or weed control at 250 g/ha ([1]; pre-emergence, Preemergence) was 100%, the pest or weed control at 500 g/ha ([1]; pre-emergence, Preemergence) was 100% and the pest or weed control at 62 g/ha [2, 11] was 0%. The pest or weed control at 125 g/ha [2, 11] was 0%, the pest or weed control at 250 g/ha [2, 9] was 0% and the pest or weed control at 500 g/ha [2, 9] was 0%. The pest or weed control at 62 g/ha [2, 12] was 0%, the pest or weed control at 125 g/ha [2, 12] was 0% and the pest or weed control at 250 g/ha ([2]; pre-emergence, Preemergence) was 0%. For the same compound, the pest or weed control at 500 g/ha ([2]; pre-emergence, Preemergence) was 0%, the pest or weed control at 62 g/ha [3, 13] was 0% and the pest or weed control at 125 g/ha [3, 13] was 0%. It also gave a pest or weed control at 250 g/ha [3, 9] of 0%, a pest or weed control at 500 g/ha [3, 9] of 0% and a pest or weed control at 62 g/ha [3, 14] of 0%. It also gave a pest or weed control at 125 g/ha [3, 14] of 0%, a pest or weed control at 250 g/ha ([3]; pre-emergence, Preemergence) of 0% and a pest or weed control at 500 g/ha ([3]; pre-emergence, Preemergence) of 0%. The pest or weed control at 62 g/ha [4, 15] was 85%, the pest or weed control at 125 g/ha [4, 15] was 98% and the pest or weed control at 250 g/ha [4, 9] was 100%. The pest or weed control at 500 g/ha [4, 9] was 100%, the pest or weed control at 62 g/ha [4, 16] was 98% and the pest or weed control at 125 g/ha [4, 16] was 100%. For the same compound, the pest or weed control at 250 g/ha ([4]; pre-emergence, Preemergence) was 100%, the pest or weed control at 500 g/ha ([4]; pre-emergence, Preemergence) was 100% and the pest or weed control at 62 g/ha [5, 17] was 0%. It also gave a pest or weed control at 125 g/ha [5, 17] of 0%, a pest or weed control at 250 g/ha [5, 9] of 0% and a pest or weed control at 500 g/ha [5, 9] of 0%. It also gave a pest or weed control at 62 g/ha [5, 18] of 0%, a pest or weed control at 125 g/ha [5, 18] of 0% and a pest or weed control at 250 g/ha ([5]; pre-emergence, Preemergence) of 0%. For the same compound, the pest or weed control at 500 g/ha ([5]; pre-emergence, Preemergence) was 0%, the plant injury at 62 g/ha [6, 19] was 0% and the plant injury at 125 g/ha [6, 19] was 0%. It also gave a plant injury at 250 g/ha [6, 9] of 0%, a plant injury at 500 g/ha [6, 9] of 5% and a plant injury at 62 g/ha [6, 20] of 0%. The plant injury at 125 g/ha [6, 20] was 0%, the plant injury at 250 g/ha ([6]; pre-emergence, Preemergence) was 0% and the plant injury at 500 g/ha ([6]; pre-emergence, Preemergence) was 0%. The plant injury at 62 g/ha ([7]; 62 g ai/ha) was 0%, the plant injury at 125 g/ha ([7]; 125 g ai/ha) was 0% and the Corn plant response rating (crop injury, 0 = no effect, 100 = complete kill) at 250 g/ha ([7]; 250 g ai/ha, scale 0 to 100) was 5%. For the same compound, the Corn plant response rating (crop injury, 0 = no effect, 100 = complete kill) at 500 g/ha ([7]; 500 g ai/ha, scale 0 to 100) was 5%.
